This experiment deals with T1, human GLP-1 receptor (Homo sapiens, UniProt P43220).
T1 construct: expressed in transfected cells
Briefly: GLP-1R cAMP assay (cAMP accumulation in CHO cells stably overexpressing the human GLP-1 receptor, HitHunter kit). The settings on record: CHO cells stably overexpressing human GLP-1R, 30 min, 20-point dose response in triplicate. Type of experiment: cell-based. Summed up:
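CHO cells stably expressing the human receptor (10,000/well) in HBSS with 10 mM HEPES and 625 μM IBMX, given compound as a 20-point dose response in triplicate for 30 min. cAMP was read by luminescent enzyme-complementation detection after overnight incubation, and EC50 was fitted from dose-response curves.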
(cAMP levels reflect the balance of adenylyl cyclase and phosphodiesterase activity.)

T1 sequence (P43220 24-463): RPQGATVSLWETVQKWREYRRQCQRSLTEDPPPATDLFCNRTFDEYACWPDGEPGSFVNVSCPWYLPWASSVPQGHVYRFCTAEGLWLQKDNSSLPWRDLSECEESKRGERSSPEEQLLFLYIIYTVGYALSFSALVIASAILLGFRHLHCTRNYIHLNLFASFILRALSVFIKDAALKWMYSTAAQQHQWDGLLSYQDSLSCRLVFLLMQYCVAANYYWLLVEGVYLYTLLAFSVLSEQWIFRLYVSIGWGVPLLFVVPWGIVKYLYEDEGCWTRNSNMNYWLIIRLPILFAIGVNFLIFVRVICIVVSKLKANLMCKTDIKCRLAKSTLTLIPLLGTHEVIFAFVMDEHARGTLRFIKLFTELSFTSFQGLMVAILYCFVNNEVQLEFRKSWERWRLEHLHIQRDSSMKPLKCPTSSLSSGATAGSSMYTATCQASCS

Take `C[C@H]1C[C@@H](Oc2ccnc(COc3ncc(C#N)cc3F)n2)CCN1Cc1nc2ccc(C(=O)O)cc2n1C[C@@H]1CCCO1` [Compound 631, 2-(((2S,4S)-4-((2-(((5-cyano-3-fluoropyridin-2-yl)oxy)methyl)pyrimidin-4-yl)oxy)-2-methylpiperidin-1-yl)methyl)-1-(((S)-tetrahydrofuran-2-yl)methyl)-1H-benzo[d]imidazole-6-carboxylic acid]: the EC50 (in general, the concentration that produces a half-maximal response) was in the range of 0.1 to 1 nM.

Molecule `C[C@H]1C[C@@H](Oc2ccnc(COc3ncc(F)cc3F)n2)CCN1Cc1nc2ccc(C(=O)O)cc2n1C[C@@H]1CCCO1` [Compound 632, 2-(((2S,4S)-4-((2-(((3,5-Difluoropyridin-2-yl)oxy)methyl)pyrimidin-4-yl)oxy)-2-methylpiperidin-1-yl)methyl)-1-(((S)-tetrahydrofuran-2-yl)methyl)-1H-benzo[d]imidazole-6-carboxylic acid] returned an EC50 of 0.1 to 1 nM.

On to `C[C@H]1C[C@@H](Oc2ccnc(COc3ccc(F)cc3F)n2)CCN1Cc1nc2ccccc2n1C[C@@H]1CCO1` [Compound 633, 2-(((2S,4S)-4-((2-((2,4-Difluorophenoxy)methyl)pyrimidin-4-yl)oxy)-2-methylpiperidin-1-yl)methyl)-1-(((S)-oxetan-2-yl)methyl)-1H-benzo[d]imidazole], for which the EC50 was 10 to 100 nM.

Take `N#Cc1cnc(OCc2nccc(OC3CCN(Cc4nc5c(F)cc(C(=O)O)cc5n4C[C@@H]4CCO4)CC3)n2)c(F)c1` [Compound 634]: the EC50 was in the range of 0.1 to 1 nM.

Molecule `C[C@H]1C[C@@H](Oc2ccnc(COc3ncc(C#N)cc3F)n2)CCN1Cc1nc2ccc(C(=O)O)cc2n1CCOCC(F)(F)F` [Compound 635, 2-(((2S,4S)-4-((2-(((5-Cyano-3-fluoropyridin-2-yl)oxy)methyl)pyrimidin-4-yl)oxy)-2-methylpiperidin-1-yl)methyl)-1-(2-(2,2,2-trifluoroethoxy)ethyl)-1H-benzo[d]imidazole-6-carboxylic acid] yielded an EC50 of 0.1 to 1 nM.

Turning to `C[C@H]1C[C@@H](Oc2ccnc(COc3ncc(C#N)cc3F)n2)CCN1Cc1nc2c(F)cc(C(=O)O)cc2n1CCOCC(F)(F)F` [Compound 636, 2-(((2S,4S)-4-((2-(((5-cyano-3-fluoropyridin-2-yl)oxy)methyl)pyrimidin-4-yl)oxy)-2-methylpiperidin-1-yl)methyl)-4-fluoro-1-(2-(2,2,2-trifluoroethoxy)ethyl)-1H-benzo[d]imidazole-6-carboxylic acid], the EC50 lay within 0.1 to 1 nM.

Consider `C[C@H]1C[C@@H](Oc2ccnc(COc3ccc(F)cc3F)n2)CCN1Cc1nc2ccc(CC(=O)O)cc2n1C[C@@H]1CCO1` [Compound 637, 2-(2-(((2S,4S)-4-((2-((2,4-difluorophenoxy)methyl)pyrimidin-4-yl)oxy)-2-methylpiperidin-1-yl)methyl)-1-(((S)-oxetan-2-yl)methyl)-1H-benzo[d]imidazol-6-yl) acetic acid], for which the EC50 lay within 1 to 10 nM.

In the case of `C[C@H]1C[C@@H](Oc2ccnc(COc3ccc(F)cc3F)n2)CCN1Cc1nc2ccc(C(=O)Nc3cccnc3)cc2n1C[C@@H]1CCO1` [Compound 638, 2-(((2S,4S)-4-((2-((2,4-Difluorophenoxy)methyl)pyrimidin-4-yl)oxy)-2-methylpiperidin-1-yl)methyl)-1-(((S)-oxetan-2-yl)methyl)-N-(pyridin-3-yl)-1H-benzo[d]imidazole-6-carboxamide], the EC50 was 10 to 100 nM.

Molecule `C[C@H]1C[C@@H](Oc2ccnc(COc3ccc(F)cc3F)n2)CCN1Cc1nc2ccc(CO)cc2n1C[C@@H]1CCO1` [Compound 639, (2-(((2S,4S)-4-((2-((2,4-difluorophenoxy)methyl)pyrimidin-4-yl)oxy)-2-methylpiperidin-1-yl)methyl)-1-(((S)-oxetan-2-yl)methyl)-1H-benzo[d]imidazol-6-yl)methanol] gave an EC50 of 10 to 100 nM.

In the case of `N#Cc1ccc(OCc2nccc(O[C@H]3CC[C@H](Cc4nc5ccc(C(=O)O)cc5n4C[C@@H]4CCO4)CC3)n2)c(F)c1` [Compound 640, 1-{[(2S)-oxetan-2-yl]methyl}-2-{[(1r,4r)-4-({2-[(4-cyano-2-fluorophenoxy)methyl]pyrimidin-4-yl}oxy)cyclohexyl]methyl}-1H-1,3-benzodiazole-6-carboxylic acid], the EC50 is less than 0.1 nM.

Molecule `N#Cc1ccc(OCc2nccc(O[C@H]3CC[C@@H](Cc4nc5ccc(C(=O)O)cc5n4C[C@@H]4CCO4)CC3)n2)c(F)c1` [Compound 641, 1-{[(2S)-oxetan-2-yl]methyl}-2-{[(1s,4s)-4-({2-[(4-cyano-2-fluorophenoxy)methyl]pyrimidin-4-yl}oxy)cyclohcxyl]methyl}-1H-1,3-benzodiazole-6-carboxylic acid] showed a concentration giving a half-maximal response (EC50) of 100 to 500 nM.

The values are drawn from US20260317309A1, “N-HETEROCYLIC GPCR RECEPTOR AGONISTS, PHARMACEUTICAL COMPOSITIONS COMPRISING THE SAME, AND METHODS FOR THEIR USE” (Carmot Therapeutics, Inc., priority 2022, published 2026).
